This is an account of results in patent US9206159B2, “Piperazine-piperidine compounds as hepatitis C virus inhibitors” (Theravance Biopharma R&D IP, LLC, priority 2012, dated 2015).

Molecules are shown by their SMILES.

In the first experiment the test system is HCV genotype 1a replicon cell line. The experiment can be described thus: HCV Genotype 1a Replicon Assay. The class given is cell-based, hepatitis C virus. Conditions: Hepatitis C virus, Huh7.5 cell background, NS3-specific protease activity in lysates, 48 or 72 hours, read-out: Genotype 1a (pEC50 class) (converted). An outline of the steps:
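Huh7.5-based subgenomic genotype 1a replicon cells, plated without G418, exposed to compound dose-responses (0.5% DMSO final) for 48 or 72 h at 37 °C. Lysate NS3/4a protease activity read with 15 μM FRET substrate, 20 min at 37 °C (Ex 340/Em 509 nm); EC50 from 4-parameter fit.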
On the technique in general: In antiviral work, replicon cells carry a viral genome segment that copies itself.
Regarding `COC(=O)N[C@H](C(=O)N1C[C@@H](C)C[C@H]1c1nc(-c2ccc(-c3cc(Cl)c(NC(=O)N4CCN(C5CCN(C(=O)C(C)(C)C)CC5)CC4)cc3OC(F)(F)F)cc2)c[nH]1)C(C)C` [Example 4], the EC50 is 0.1 to 1 nM.

For the molecule `COC(=O)N[C@H](C(=O)N1C[C@@H](OC)C[C@H]1c1nc(-c2ccc(-c3ccc(NC(=O)N4CCN(C5CCN(C(=O)C(C)(C)C)CC5)CC4)cc3OC(F)(F)F)cc2)c[nH]1)C(C)C` [Example 5-1], the EC50 was 0.1 to 1 nM.

On to `COC(=O)N[C@H](C(=O)N1C[C@@H](OC)C[C@H]1c1nc(-c2ccc(-c3ccc(NC(=O)N4CCN(C5CCN(C(=O)C6CC6)CC5)CC4)cc3OC(F)(F)F)cc2)c[nH]1)C(C)C` [Example 5-3], for which the EC50 is 0.1 to 1 nM.

Consider `COC(=O)N[C@H](C(=O)N1C[C@@H](OC)C[C@H]1c1nc(-c2ccc(-c3ccc(NC(=O)N4CCN(C5CCN(C(=O)C6CCCC6(C)C)CC5)CC4)cc3OC(F)(F)F)cc2)c[nH]1)C(C)C` (some centres unmarked) [Example 5-4], for which the EC50 was 0.1 to 1 nM.

Take `COC(=O)N[C@H](C(=O)N1C[C@@H](OC)C[C@H]1c1nc(-c2ccc(-c3ccc(NC(=O)N4CCN(C5CCN(C(=O)C(C)(C)CO)CC5)CC4)cc3OC(F)(F)F)cc2)c[nH]1)C(C)C` [Example 5-5]: the EC50 was 0.1 to 1 nM.

With `COC(=O)N[C@H](C(=O)N1C[C@@H](C)C[C@H]1c1nc(-c2ccc(-c3cc(Cl)c(NC(=O)N4CCN(C5CCN(C(=O)C6CC6(F)F)CC5)CC4)cc3OC(F)(F)F)cc2)c[nH]1)C(C)C` (some centres unmarked) [Example 5], the EC50 is 0.1 to 1 nM.

Consider `COC(=O)N[C@H](C(=O)N1C[C@@H](C)C[C@H]1c1nc2c(ccc3cc(-c4ccc(NC(=O)N5CCN(C6CCN(C(=O)OC(C)(C)C)CC6)CC5)cc4OC(F)(F)F)ccc32)[nH]1)C(C)C` [Example 6-2], for which the EC50 is under 0.1 nM.

As for `COC(=O)N[C@H](C(=O)N1C[C@@H](C)C[C@H]1c1nc2c(ccc3cc(-c4ccc(NC(=O)N5CCN(C6CCN(C(=O)C7CCC7(C)C)CC6)CC5)cc4OC(F)(F)F)ccc32)[nH]1)C(C)C` (some centres unmarked) [Example 6-3], the EC50 is under 0.1 nM.

`COC(=O)N[C@H](C(=O)N1C[C@@H](C)C[C@H]1c1nc(-c2ccc(-c3cc(Cl)c(NC(=O)N4CCN(C5CCN(C(=O)C6CCC6)CC5)CC4)cc3OC(F)(F)F)cc2)c[nH]1)C(C)C` [Example 6]: the EC50 was 0.1 to 1 nM.

`COC(=O)N[C@H](C(=O)N1C[C@@H](C)C[C@H]1c1nc2c(ccc3cc(-c4ccc(NC(=O)N5CCN(C6CCN(C(=O)OC(C)(C)C)CC6)CC5)cc4OC(F)(F)F)ccc32)[nH]1)C1CCOCC1` [Example 7-1]: the EC50 was under 0.1 nM.

As to `COC(=O)N[C@H](C(=O)N1C[C@@H](C)C[C@H]1c1nc2c(ccc3cc(-c4ccc(NC(=O)N5CCN(C6CCN(C(=O)C(C)(C)C)CC6)CC5)cc4OC(F)(F)F)ccc32)[nH]1)C1CCOCC1` [Example 7-2], the EC50 was under 0.1 nM.

As to `COC(=O)N[C@H](C(=O)N1C[C@@H](C)C[C@H]1c1nc2c(ccc3cc(-c4ccc(NC(=O)N5CCN(C6CCN(C(=O)C(C)(C)CO)CC6)CC5)cc4OC(F)(F)F)ccc32)[nH]1)C1CCOCC1` [Example 7-3], the EC50 is 0.1 to 1 nM.

Regarding `COC(=O)N[C@H](C(=O)N1C[C@@H](C)C[C@H]1c1nc2c(ccc3cc(-c4ccc(NC(=O)N5CCN(C6CCN(C(=O)C7CC7)CC6)CC5)cc4OC(F)(F)F)ccc32)[nH]1)C1CCOCC1` [Example 7-4], the EC50 is under 0.1 nM.

As for `COC(=O)N[C@H](C(=O)N1C[C@@H](C)C[C@H]1c1nc(-c2ccc(-c3ccc(NC(=O)N4CCN(C5CCN(C(=O)C(C)(C)C)CC5)CC4)cc3OC(F)(F)F)cc2)c(F)[nH]1)C(C)C` [Example 8, [(S)-1-((2S,4S)-2-{4-[4′-({4-[1-(2,2-Dimethyl-propionyl)-piperidin-4-yl]-piperazine-1-carbonyl}-amino)-2′-trifluoromethoxy-biphenyl-4-yl]-5-fluoro-1H-imidazol-2-yl}-4-methyl-pyrrolidine-1-carbonyl)-2-methyl-propyl]-carbamic acid methyl ester], the EC50 is under 0.1 nM.

The experiment is the same for the next values; noted with them: Huh7.5 cell background, NS3-specific protease activity in lysates, 48 or 72 hours.
As for `COC(=O)N[C@H](C(=O)N1C[C@@H](C)C[C@H]1c1nc(-c2ccc(-c3cc(Cl)c(NC(=O)N4CCC(N5CCN(C(=O)[C@H]6CC6(C)C)[C@@H](C)C5)CC4)cc3OC(F)(F)F)cc2)c[nH]1)C(C)C` [Example 4-2], the “Genotype 1a (pEC50 class)” value was “C (C represents pEC50 between and 9 and about 10, (EC50 between 1 nM and 0.1 nM))”.

On to `COC(=O)N[C@H](C(=O)N1C[C@@H](C)C[C@H]1c1nc(-c2ccc(-c3cc(Cl)c(NC(=O)N4CCC(N5CCN(C(=O)C(C)(C)C)[C@@H](C)C5)CC4)cc3OC(F)(F)F)cc2)c[nH]1)C(C)C` [Example 4-3], for which the “Genotype 1a (pEC50 class)” value is “B (B represents pEC50 between 8 and 9 (EC50 between 1 and 10 nM))”.

Consider `CNC(=O)N1CCN(C2CCN(C(=O)Nc3cc(OC(F)(F)F)c(-c4ccc(-c5c[nH]c([C@@H]6C[C@H](C)CN6C(=O)[C@@H](NC(=O)OC)C(C)C)n5)cc4)cc3Cl)CC2)C[C@@H]1C` [Example 4-4], for which the “Genotype 1a (pEC50 class)” value was “B (B represents pEC50 between 8 and 9 (EC50 between 1 and 10 nM))”.

For the molecule `COC(=O)N[C@H](C(=O)N1C[C@@H](C)C[C@H]1c1nc(-c2ccc(-c3cc(Cl)c(NC(=O)N4CCC(N5CCN(C(=O)C6CC6)[C@@H](C)C5)CC4)cc3OC(F)(F)F)cc2)c[nH]1)C(C)C` [Example 4-5], the “Genotype 1a (pEC50 class)” value was “B (B represents pEC50 between 8 and 9 (EC50 between 1 and 10 nM))”.

Take `COC(=O)N[C@H](C(=O)N1C[C@@H](C)C[C@H]1c1nc(-c2ccc(-c3cc(F)c(NC(=O)N4CCC(N5CCN(C(=O)OC(C)(C)C)CC5)CC4)cc3OC(F)(F)F)cc2)c[nH]1)C(C)C` [Example 4-6]: the “Genotype 1a (pEC50 class)” value is “B (B represents pEC50 between 8 and 9 (EC50 between 1 and 10 nM))”.

Turning to `COC(=O)N[C@H](C(=O)N1C[C@@H](C)C[C@H]1c1nc(-c2ccc(-c3cc(F)c(NC(=O)N4CCC(N5CCN(C(=O)C(C)(C)C)CC5)CC4)cc3OC(F)(F)F)cc2)c[nH]1)C(C)C` [Example 4-7], the “Genotype 1a (pEC50 class)” value was “C (C represents pEC50 between and 9 and about 10, (EC50 between 1 nM and 0.1 nM))”.

`COC(=O)N[C@H](C(=O)N1C[C@@H](C)C[C@H]1c1nc(-c2ccc(-c3cc(F)c(NC(=O)N4CCC(N5CCN(C(=O)[C@H]6CC6(C)C)CC5)CC4)cc3OC(F)(F)F)cc2)c[nH]1)C(C)C` [Example 4-8]: the “Genotype 1a (pEC50 class)” value is “C (C represents pEC50 between and 9 and about 10, (EC50 between 1 nM and 0.1 nM))”.

On to `COC(=O)N[C@H](C(=O)N1C[C@@H](C)C[C@H]1c1nc(-c2ccc(-c3cc(F)c(NC(=O)N4CCC(N5CCN(C(=O)C6CC6)CC5)CC4)cc3OC(F)(F)F)cc2)c[nH]1)C(C)C` [Example 4-9], for which the “Genotype 1a (pEC50 class)” value is “C (C represents pEC50 between and 9 and about 10, (EC50 between 1 nM and 0.1 nM))”.

On to `COC(=O)N[C@H](C(=O)N1C[C@@H](C)C[C@H]1c1nc(-c2ccc(-c3ccc(NC(=O)N4CCC(N5CCN(C(=O)C(C)(C)C)CC5)CC4)cc3OC(F)(F)F)cc2)c[nH]1)C(C)C` [Example 4-10], for which the “Genotype 1a (pEC50 class)” value was “C (C represents pEC50 between and 9 and about 10, (EC50 between 1 nM and 0.1 nM))”.

Take `COC(=O)N[C@H](C(=O)N1C[C@@H](C)C[C@H]1c1nc(-c2ccc(-c3ccc(NC(=O)N4CCC(N5CCN(C(=O)[C@H]6CC6(C)C)CC5)CC4)cc3OC(F)(F)F)cc2)c[nH]1)C(C)C` [Example 4-11]: the “Genotype 1a (pEC50 class)” value is “C (C represents pEC50 between and 9 and about 10, (EC50 between 1 nM and 0.1 nM))”.

Regarding `COC(=O)N[C@H](C(=O)N1C[C@@H](C)C[C@H]1c1nc(-c2ccc(-c3cc(Cl)c(NC(=O)N4CCC(N5CCN(C(=O)OC(C)(C)C)CC5)CC4)cc3OC(F)(F)F)cc2)c[nH]1)C(C)C` [Example 4-12], the “Genotype 1a (pEC50 class)” value is “B (B represents pEC50 between 8 and 9 (EC50 between 1 and 10 nM))”.

With `COC(=O)N[C@H](C(=O)N1C[C@@H](C)C[C@H]1c1nc(-c2ccc(-c3cc(Cl)c(NC(=O)N4CCC(N5CCN(C(=O)C(C)(C)C)CC5)CC4)cc3OC(F)(F)F)cc2)c[nH]1)C(C)C` [Example 4-13], the “Genotype 1a (pEC50 class)” value is “B (B represents pEC50 between 8 and 9 (EC50 between 1 and 10 nM))”.

Turning to `COC(=O)N[C@H](C(=O)N1C[C@@H](C)C[C@H]1c1nc(-c2ccc(-c3cc(Cl)c(NC(=O)N4CCC(N5CCN(C(=O)[C@H]6CC6(C)C)CC5)CC4)cc3OC(F)(F)F)cc2)c[nH]1)C(C)C` [Example 4-14], the “Genotype 1a (pEC50 class)” value was “C (C represents pEC50 between and 9 and about 10, (EC50 between 1 nM and 0.1 nM))”.

As to `COC(=O)N[C@H](C(=O)N1C[C@@H](C)C[C@H]1c1nc(-c2ccc(-c3cc(Cl)c(NC(=O)N4CCC(N5CCN(C(=O)C6CC6)CC5)CC4)cc3OC(F)(F)F)cc2)c[nH]1)C(C)C` [Example 4-15], the “Genotype 1a (pEC50 class)” value was “B (B represents pEC50 between 8 and 9 (EC50 between 1 and 10 nM))”.

As to `COC(=O)N[C@H](C(=O)N1C[C@@H](C)C[C@H]1c1nc(-c2ccc(-c3cc(Cl)c(NC(=O)N4CCC(N5CCN(C(=O)C(C)(C)C)C[C@H]5C)CC4)cc3OC(F)(F)F)cc2)c[nH]1)C(C)C` [Example 4-16], the “Genotype 1a (pEC50 class)” value was “C (C represents pEC50 between and 9 and about 10, (EC50 between 1 nM and 0.1 nM))”.

Regarding `COC(=O)N[C@H](C(=O)N1C[C@@H](C)C[C@H]1c1nc(-c2ccc(-c3cc(Cl)c(NC(=O)N4CCC(N5CCN(C(=O)[C@H]6CC6(C)C)C[C@H]5C)CC4)cc3OC(F)(F)F)cc2)c[nH]1)C(C)C` [Example 4-17], the “Genotype 1a (pEC50 class)” value was “C (C represents pEC50 between and 9 and about 10, (EC50 between 1 nM and 0.1 nM))”.

On to `COC(=O)N[C@H](C(=O)N1C[C@@H](OC)C[C@H]1c1nc(-c2ccc(-c3ccc(NC(=O)N4CCN(C5CCN(C(=O)[C@H]6CC6(C)C)CC5)CC4)cc3OC(F)(F)F)cc2)c[nH]1)C(C)C` [Example 5-2], for which the “Genotype 1a (pEC50 class)” value is “C (C represents pEC50 between and 9 and about 10, (EC50 between 1 nM and 0.1 nM))”.

For `COC(=O)N[C@H](C(=O)N1C[C@@H](C)C[C@H]1c1nc2c(ccc3cc(-c4ccc(NC(=O)N5CCN(C6CCN(C(=O)[C@H]7CC7(C)C)CC6)CC5)cc4OC(F)(F)F)ccc32)[nH]1)C1CCOCC1` [Example 7-5], the “Genotype 1a (pEC50 class)” value is listed as “D (D represents pEC50>10 (EC50<0.1 nM))”.
